Data published in publication PMC7821381, “Multi-Targeted Anticancer Activity of Imidazolate Phosphane Gold(I) Compounds by Inhibition of DHFR and TrxR in Breast Cancer Cells” (Frontiers in Chemistry, 2021).

Tests used:
[1] = target: T1, dihydrofolate reductase (DHFR) (Homo sapiens, UniProt P00374); test: DHFR specific enzymatic activity in lysates of treated MDA-MB231 cells; assay type: cell-based; settings: 8 μM (maximum inhibition)
T1 construct: Cell lysates were collected using Cell Culture Lysis Reagent; endogenous in cells; host or cells: MDA-MB231 and SKBR3 (human breast cancer cells)
T1 sequence (P00374 1-187): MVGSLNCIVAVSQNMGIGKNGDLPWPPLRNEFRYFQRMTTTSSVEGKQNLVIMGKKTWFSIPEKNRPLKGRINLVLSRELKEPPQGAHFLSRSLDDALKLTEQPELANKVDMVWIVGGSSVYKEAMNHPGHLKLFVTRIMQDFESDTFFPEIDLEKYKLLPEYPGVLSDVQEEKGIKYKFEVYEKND
Protocol: (§1) SKBR3, MDA-MB-231 and A17 cells were plated onto 100 mm cell culture dishes (2 × 10^6 cells/ dish). The day after, cells were treated with vehicle alone (DMSO) as control or increasing concentrations of compound 5 and compound 6 in DMEM supplemented with 2% FBS (Invitrogen, Carlsbad, CA) for 4 h or 12 h. Representative pictures of cells treated with compound 5 or 6 at the indicated concentration for 4 or 12 h just before to take cell lysates for the enzymatic tests are reported as supplemental files. Cell lysates were collected using Cell Culture Lysis Reagent (Promega, Madison, WI) supplemented with BSA (1%) and protease inhibitors. DHFR activity was assessed by spectrophotometric assay as reported elsewhere (Wang et al., [2020]) in which the reaction rate was followed by recording the decreasing absorbance at 340 nm due to oxidation of NADPH to NADP^+, using a Shimadzu UV-2450 spectrophotometer. When necessary, because of low protein content in the lysates, the DHFR enzymatic activity was measured by a discontinuous direct HPLC assay using an Agilent 1100 system. HPLC-DAD (Agilent 1100) was used to detect and quantify the presence of NADP^+, as one of the products of DHFR catalyzed reaction, in cell lysates. Fifty microliter of the cell lysate were incubated at 37°C in a reaction mixture containing 760 μl of buffer (0.05 M Hepes pH 7.3), 20 μl of NADPH 4 mM, and 20 μl of dihydrofolate (H2F) 4 mM. The samples for HPLC analysis were prepared as follows: 50 μl aliquots of each mixture were stopped at different times (0, 5, 10, 20, 30, and 60 min) by adding 25 μl of HClO4 1.2 M; after 10 min on ice and centrifugation for 5 min at 12,000 g, 60 μl of each supernatant were neutralized by adding 17.5 μl of K2CO3 0.79 M, kept on ice and centrifuged again. Fifty microliter of the supernatant obtained were directly injected into the reversed phase column for separations of reagents and products of the enzyme catalyzed reaction. The column used is a Supelcosil LC RP 18 (4.6 × 250 mm) with pre-column SupelGuard. The HPLC settings are the same reported in Wang et al. ([2020]). The amounts of product (NADP^+) were determined from the peak areas of the HPLC-separated compounds with reference to appropriate standards. One enzyme unit is defined as the amount of enzyme which catalyzes the reduction of 1 μmol of dihydrofolate, per minute, at 37°C. Enzyme activities were normalized by the protein content, determined by the Bradford assay (Bradford, [1976]).

[2] = target: T1, dihydrofolate reductase (DHFR); test: DHFR specific enzymatic activity in lysates of treated SKBR3 cells; assay type: cell-based; settings: 6 μM (maximum inhibition)
Protocol: as §1

[3] = test system: thioredoxin reductase (TrxR); settings: A17, 12 h treatment, 6 μM (maximum inhibition); control 4.95 ± 0.08
Protocol: The assay was performed as previously reported (Galassi et al., [2012]) in 0.2 M Na, K-phosphate buffer (pH 7.4) containing 2 mM EDTA. The assay contained 0.12 mM NADPH and different amounts of cell lysate. The reaction was initiated by the addition of 3 mM 5,5′-dithiobis (2-nitrobenzoic acid) (DTNB) and the increase of absorbance was monitored at 412 nm over 5 min at 25°C.
Fig. 3S. Effects of gold(I) compounds 5 and 6 on redox enzyme thioredoxine reductase in A17 cancer cells. Cells were incubated for 12 hours with different amount of tested compounds 5 and 6. After incubation, cells were washed twice with PBS and lysed. TrxR activity was tested by measuring NADPH-dependent reduction of DTNB (Galassi et al, 2012).

[4] = target: T2, dihydrofolate reductase (DHFR) (Mus musculus, UniProt P00375); test: DHFR specific enzymatic activity in lysates of treated A17 cells; assay type: cell-based, murine; settings: 6 μM (maximum inhibition)
T2 construct: Cell lysates were collected using Cell Culture Lysis Reagent; endogenous in cells; host or cells: A17 (murine basal-like breast cancer cells)
T2 sequence (P00375 1-187): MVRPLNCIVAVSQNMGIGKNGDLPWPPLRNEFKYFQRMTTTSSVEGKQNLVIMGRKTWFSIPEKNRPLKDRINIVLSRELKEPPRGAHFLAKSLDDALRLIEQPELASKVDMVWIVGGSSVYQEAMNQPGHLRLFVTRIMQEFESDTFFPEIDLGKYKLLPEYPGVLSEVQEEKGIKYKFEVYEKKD
Protocol: as §1

[5] = MDA-MB231, 4 h treatment, control 5.38 ± 0.38
[6] = MDA-MB231, 12 h treatment, control 0.64 ± 0.02
[7] = SKBR3, 4 h treatment, control 0.72 ± 0.05
[8] = SKBR3, 12 h treatment, control 0.67 ± 0.10
[9] = A17, 4 h treatment, control 1.17 ± 0.06
[10] = A17, 12 h treatment, control 4.77 ± 0.78

Row | Substance | Specific enzymatic activity of DHFR [1, 5] | Specific enzymatic activity of DHFR [1, 6] | Specific enzymatic activity of DHFR [2, 7] | Specific enzymatic activity of DHFR [2, 8] | Specific enzymatic activity of TrxR [3] | Specific enzymatic activity of DHFR [4, 9] | Specific enzymatic activity of DHFR [4, 10]
1 | 4,5-dichloro-imidazolate-1yl-gold(I)-(triphenylphosphane) [Compound 6] | 1.75 ± 0.34 mU/mg | 0.55 ± 0.002 mU/mg | 0.64 ± 0.06 mU/mg | 0.34 ± 0.01 mU/mg | 4.21 ± 0.09 (6 μM) mU/mg | 1.03 ± 0.03 mU/mg | 2.01 ± 0.14 mU/mg
2 | 4,5-dicyano-imidazolate-1yl-gold(I)-(triphenylphosphane) [Compound 5] | 2.37 ±0.39 mU/mg | 0.42 ± 0.01 mU/mg | 0.54 ± 0.04 mU/mg | 0.29 ± 0.05 mU/mg | 1.84 ± 0.06 (6 μM) mU/mg | 1.07 ± 0.02 mU/mg | 1.66 ± 0.07 mU/mg
